Values quoted from earlier work in patent US20130116211A1, “Novel Salts Of Boswellic Acids And Selectively Enriched Boswellic Acids And Processes For The Same” (priority 2005, published 2013).

Key:
[1] = molecular target: T1, 5-LOX (Homo sapiens, UniProt P09917)
T1 sequence (P09917 1-674): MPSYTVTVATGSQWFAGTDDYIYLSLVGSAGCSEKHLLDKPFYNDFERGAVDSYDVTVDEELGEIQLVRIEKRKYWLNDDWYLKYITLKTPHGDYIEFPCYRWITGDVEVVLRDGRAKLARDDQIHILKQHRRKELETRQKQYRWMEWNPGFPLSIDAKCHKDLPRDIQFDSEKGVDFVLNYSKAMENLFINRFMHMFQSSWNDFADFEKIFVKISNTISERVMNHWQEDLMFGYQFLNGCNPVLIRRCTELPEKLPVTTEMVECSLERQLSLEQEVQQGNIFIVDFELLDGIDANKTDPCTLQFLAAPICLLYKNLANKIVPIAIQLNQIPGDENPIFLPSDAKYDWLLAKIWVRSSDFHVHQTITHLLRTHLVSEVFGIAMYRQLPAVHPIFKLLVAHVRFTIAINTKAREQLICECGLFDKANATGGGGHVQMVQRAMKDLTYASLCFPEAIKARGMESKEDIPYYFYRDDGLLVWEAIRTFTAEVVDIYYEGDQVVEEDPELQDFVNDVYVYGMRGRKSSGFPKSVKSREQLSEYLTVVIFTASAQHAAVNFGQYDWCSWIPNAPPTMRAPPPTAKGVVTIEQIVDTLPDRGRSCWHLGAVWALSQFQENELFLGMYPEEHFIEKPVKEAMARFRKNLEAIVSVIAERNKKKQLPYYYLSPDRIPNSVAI

[2] = test system: symptoms of osteoarthritis; conditions: relieving the symptoms of osteoarthritis, double-blind studies

Compound | mechanism of 5-LOX inhibition ([1]; binds in a calcium-dependent and reversible manner (Sailer 1998)) | inhibitory activity against 5-LOX ([1]; compared among all the six boswellic acids (Sailer 1996)) | therapeutic effects versus non steroidal anti-inflammatory drugs [2]
3-O-acetyl-11-keto-β-boswellic acid [AKBA] | non-redox-type, non-competitive inhibitor | most pronounced inhibitory activity | –
N[C@H]1C(O)O[C@H](CO)[C@@H](O)[C@@H]1O.O=S(=O)(O)O (stereo partly drawn) [glucosamine sulfate] | – | – | comparable to or even better than
